Series [1] deals with Streptococcus faecalis ATCC 10541. The experiment in a line: Antibacterial activity, minimum growth inhibitory concentration by agar dilution method (SF). It counts as cell-based. Conditions: Enterococcus faecalis, ATCC10541, pH 7, read-out: MIC, Streptococcus faecalis (SF). On the procedure:
(§1) The various compounds of formula (I) of Examples 1-26 were tested for antibacterial activity against 6 microorganisms. […]. In this table, the following symbols are used:
SF: Streptococcus faecalis ATCC 10541
In general terms: Agar dilution tests growth on a series of plates holding different concentrations.

The test system of series [2] is Staphylococcus aureus ATCC 6538P. Briefly: Antibacterial activity, minimum growth inhibitory concentration by agar dilution method (SA). It counts as cell-based. Conditions: ATCC6538P, pH 7, read-out: MIC, Staphylococcus aureus (SA). On the procedure:
as §1
SA: Staphylococcus aureus ATCC 6538P

For series [3], the system named is Bacillus subtilis 10707. The experiment in a line: Antibacterial activity, minimum growth inhibitory concentration by agar dilution method (BS). It counts as cell-based. The note with it: Bacillus subtilis, 10707, pH 7, read-out: MIC, Bacillus subtilis (BS). On the procedure:
as §1
BS: Bacillus subtilis 10707

For series [4], the system named is Proteus vulgaris ATCC 6897. Briefly: Antibacterial activity, minimum growth inhibitory concentration by agar dilution method (PV). Conditions: ATCC6897, pH 7, read-out: MIC, Proteus vulgaris (PV). It counts as cell-based. As to the method: as §1
PV: Proteus vulgaris ATCC 6897

Series [5] concerns Shigella sonnei ATCC 9290. The experiment in a line: Antibacterial activity, minimum growth inhibitory concentration by agar dilution method (SS). It counts as cell-based. The note with it: ATCC9290, pH 7, read-out: MIC, Shigella sonnei (SS). On the procedure: as §1
SS: Shigella sonnei ATCC 9290

Series [6] relates to Klebsiella pneumoniae ATCC 10031. Briefly: microbe, parasite or virus in culture. Type of series: cell-based. The note with it: ATCC10031, pH 7, read-out: MIC, Klebsiella pneumoniae (KP). The source says:
In this table, the following symbols are used:
KP: Klebsiella pneumoniae ATCC 10031

Series [7] can be described thus: Acute toxicity in mice (LD50, Behrens Kerber's method). The note with it: mouse, in vivo, ip; ddy mice, single intraperitoneal administration, 14 days observation. As to the method:
(§2) The antitumour-activity and toxicity of various compounds of formula (I) were investigated as indicated below.
Each animal of the test group consisting of 5 ddy mice was administered intraperitoneally once with a test compound. […] The LD50 was determined by Behrens Kerber's method.

Series [8] concerns Sarcoma 180 solid tumour. The experiment in a line: Anti-tumour activity against Sarcoma 180 solid tumour in mice. Type of series: in vivo. Conditions: Mus musculus, sc, 168 h; Sarcoma 180 s.c. in ddy mice; into tail vein 24 hours after implantation; volume at 7 days; read-out: ED50 (dose reducing tumour volume to 50% of control). As to the method:
as §2
(1) Effect against Sarcoma 180 solid tumour cells
5×10^6 cells of Sarcoma 180 solid tumour were intraperitoneally implanted into ddy mice. 7 days later, ascites cells were sampled. The cells were washed once with a sterilized physiological solution of sodium chloride and were used to prepare a cell suspension containing 5×10^7 cells per ml. On each occasion, 0.1 ml of the cell suspension was subcutaneously implanted into the right arm pit of a male mouse (ddy strain; body weight 20±2 g). The test compound was dissolved in a physiological solution of sodium chloride with or without addition of Tween 80 and was administered into the tail vein of each mouse of a group consisting of 5 mice at a dose of 0.1-0.2 ml, 24 hours after the implantation of the tumour cells.
The anti-tumour activity was determined in the following manner. 7 days after the implantation, the major axis (a) and the minor axis (b) of the tumour were measured to calculate a value of "a×b^2 /2" which corresponds to the volume of the tumour. The anti-tumour activity was expressed by the ratio of the volume of the tumours (T) of the group of animals administered with the test compound to the corresponding volume of tumours (c) of the untreated animals.
(2) Determination of ED50
(The amount needed for reducing the volume of Sarcoma 180 solid tumours in mice to 50% on the basis of the corresponding volume of Sarcoma solid tumours in control untreated animals). On graph paper, T/C (the ratio of the volume of tumours of treated and control animals) was indicated by an arithmetic scale on the longitudinal axis and the administered amount of the test compound was indicated by a logarithmic scale on the lateral axis.
The relationship between the dose and T/C was shown by a straight line determined by the method of least squares, from which a dose corresponding to T/C of 0.5 was obtained.

In series [9] the test system is peripheral leucocytes. The experiment in a line: Effect on the peripheral leucocytes number in Sarcoma 180 bearing mice. Type of series: in vivo. The note with it: Sarcoma 180 bearing ddy mice; intraperitoneal 24 hours after implantation; blood 4 days later. On the procedure:
as §2
(4) Effect on the peripheral leucocytes number
Sarcoma 180 solid tumour cells (5×10^6) were subcutaneously implanted into the right arm pit of each mouse (body weight 20±2 g) of a group consisting of 5 male mice (ddy strain). 24 hours after implantation, a test compound was intraperitoneally administered to each animal. 4 days later, blood (each 0.02 ml) was collected from the suborbital plexus vein of each tumour-carrying animal. The collected sample of the blood was dispersed in 9.98 ml of Cell-Kit Seven solution. One drop of saponin solution was added to the sample to dissolve erythrocytes, and then a microcell counter was used to measure the number of leucocytes. On a graph paper, the number of leucocytes was indicated on the y-axis by an arithmetic scale and the dose of the test compound was indicated on the x-axis by a logarithmic scale. The relationship between the number of peripheral leucocytes and the dosage of the test compound was plotted and the dosage corresponding to 4000 peripheral leucocytes/mm^3 (about 1/2 the number of leucocytes of normal mice) was obtained. This value is denoted in Table 5 by WBC4000.

Converted amounts (≈) assume the structure as drawn.

With `CO[C@@]12[C@H](COC(N)=O)C3=C(C(=O)C(C)=C(NCCSSc4cccc(N)c4)C3=O)N1C[C@@H]1N[C@@H]12` [Compound 3, 7-N-[2-(3-aminophenyldithio)ethyl]mitomycin C], the MIC is 0.04 µg/mL (≈ 0.0773 µM) in series [1]; 0.08 µg/mL (≈ 0.155 µM) in series [2]; < 0.01 µg/mL in [3]; 5 µg/mL (≈ 9.66 µM) in [4]; 20 µg/mL (≈ 38.6 µM) in series [5]; 0.63 µg/mL (≈ 1.22 µM) in [6]. The median lethal dose (LD50) at 336 h in series [7] amounted to 7.5 mg/kg. Further, the 50% effective dose (ED50) in series [8] was 5 mg/kg. The “WBC4000 (dosage corresponding to 4000 peripheral leucocytes/mm^3)” value (“WBC4000” for short) in [9] is recorded as > 10 mg/kg.

For `CO[C@@]12[C@H](COC(N)=O)C3=C(C(=O)C(C)=C(NCCSSc4ccc(N)cc4)C3=O)N1C[C@@H]1N[C@@H]12` [Compound 4, 7-N-[2-(4-aminophenyldithio)ethyl]mitomycin C], the MIC in [1] is 0.04 µg/mL (≈ 0.0773 µM); in [2] it was 0.08 µg/mL (≈ 0.155 µM); in series [3] it was 0.02 µg/mL (≈ 0.0386 µM); in series [4] it was 5 µg/mL (≈ 9.66 µM); in [5] it was > 20 µg/mL; in [6], 1.3 µg/mL (≈ 2.51 µM). In addition, in [7], the 50% lethal dose (LD50) at 336 h was 9 mg/kg. For the same compound, in series [8], the 50% effective dose (ED50) came out at 5.1 mg/kg. Moreover, the “WBC4000” value in series [9] was > 10 mg/kg.

`CC(=O)Nc1ccc(SSCCNC2=C(C)C(=O)C3=C(C2=O)[C@H](COC(N)=O)[C@@]2(O)[C@@H]4[C@H](CN32)N4C)cc1` (stereo partly drawn) [Compound 7, 7-N-[2-(4-Acetamidophenyldithio)ethyl]mitomycin D]: the MIC in [1] was 5 µg/mL (≈ 8.93 µM); in series [2], 10 µg/mL (≈ 17.9 µM); in [3], 5 µg/mL (≈ 8.93 µM); in [4] it was > 40 µg/mL. The same compound had an LD50 at 336 h in series [7] of 46.3 mg/kg. Further, in series [8], the ED50 was > 25 mg/kg. The “WBC4000” value in series [9] is 45.5 mg/kg.

`COc1ccc(SSCCNC2=C(C)C(=O)C3=C(C2=O)[C@@H](COC(N)=O)[C@@]2(OC)[C@H]4N[C@H]4CN32)cc1` [Compound 9, 7-N-[2-(4-Methoxyphenyldithio)ethyl]mitomycin C]: the MIC in series [1] is < 0.02 µg/mL; in [2], < 0.02 µg/mL; in series [3], < 0.02 µg/mL; in [4], 1.3 µg/mL (≈ 2.44 µM); in series [5] it was 40 µg/mL (≈ 75.1 µM); in [6], 0.63 µg/mL (≈ 1.18 µM). The compound further displayed an LD50 at 336 h in series [7] of 5.3 mg/kg. The ED50 in [8] was 7.4 mg/kg. For the same compound, the “WBC4000” value in [9] is > 10 mg/kg.

As for `CC1=C(NCCSSC[C@H](N)C(=O)O)C(=O)C2=C(C1=O)N1C[C@H]3[C@H](N3C)[C@]1(O)[C@H]2COC(N)=O` (stereo partly drawn) [Compound 15, 7-N-[2-[(L-Cystein-S-yl)thio]ethyl]mitomycin D], the MIC in series [1] came to 13 µg/mL (≈ 25.3 µM); in series [2], 13 µg/mL (≈ 25.3 µM); in series [3], 6.3 µg/mL (≈ 12.3 µM); in series [4] it was 13 µg/mL (≈ 25.3 µM). This compound also returned an LD50 at 336 h in series [7] of 135 mg/kg. Besides, in [8], the ED50 is 54 mg/kg. For the same compound, the “WBC4000” value in series [9] amounted to 81.9 mg/kg.

As for `CC1=C(NCCSSC[C@H](N)C(=O)NCC(=O)O)C(=O)C2=C(C1=O)N1C[C@H]3[C@H](N3C)[C@]1(O)[C@H]2COC(N)=O` (stereo partly drawn) [Compound 21, 7-N-[2-[(Glycino-L-cystein-S-yl)thio]ethyl]mitomycin D], the MIC is 13 µg/mL (≈ 22.8 µM) in series [1], 13 µg/mL (≈ 22.8 µM) in series [2], 3.1 µg/mL (≈ 5.43 µM) in series [3] and 13 µg/mL (≈ 22.8 µM) in series [4]. For the same compound, the LD50 at 336 h in series [7] was > 200 mg/kg. For the same compound, the median effective dose (ED50) in series [8] was 61.1 mg/kg. Besides, the “WBC4000” value in [9] came out at 83.9 mg/kg.

In series [7], `CO[C@@]12[C@H](COC(N)=O)C3=C(C(=O)C(C)=C(NCCSSC(C)(C)[C@@H](N)C(=O)O)C3=O)N1C[C@@H]1N[C@@H]12` [Compound 28] showed a median lethal dose (LD50) at 336 h of 26.3 mg/kg. Further, the ED50 in series [8] is 8.2 mg/kg. Besides, the “WBC4000” value in [9] was 16.3 mg/kg.

For orientation: LD50 means the dose expected to kill half of the subjects tested. A lower LD50 goes with a more toxic substance. In general, ED50 refers to the dose that gives a 50% effect, or the effect in half of the subjects.
